Read-outs that look alike come from different tables or passages of the source.
Experiments:
[1] = tested on: HIV-1 infection of TZM-bl cells; test: HIV-1 infectivity enhancement assay, β-galactosidase luminescence; assay type: cell-based; details: for Rel-EFC / Log10 Infection Rel EFC: 1.3 µM peptide; for Rel-EFC: infection relative to EF-C (QCKIKQIINMWQ = 1); for Log10 Infection Rel EFC: log10 of infection relative to EF-C; for Log Infectivity: Log10 infection relative to EF-C, asymmetric std dev errors; for Log Infectivity / Abs. Inf.: TZM-bl cells; for Log10 Infection Rel EF-C: HIV-1 infection of TZM-bl cells; for Abs. Inf.: absolute HIV-1 infection signal, β-galactosidase luminescence; for Log10 of Rel to EFC (Feb2021): Log10 of infection relative to EF-C
[2] = β-sheet content by ATR-FT-IR; assay type: physicochemical; details: for b -sheet / %: Fig. S7 panel A, β-sheet content by ATR-FT-IR; for beta sheet: peptides with TEM 2cat 0
Summary of the method: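 In the conversion assay, unconverted peptide passing a 3 kDa membrane at 4 °C was labelled with fluorescamine alongside unfiltered PNF, both in DMSO, and read at 365/470 nm after 20 min at room temperature. β-sheet content relied on ATR FT-IR of lyophilized fibril powder.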

[3] = assay type: physicochemical; details: for ThT Cat. / ThT-Fluorescence (categorical): ThT-active if fluorescence at least twice the control
Summary of the method: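 Fibrils (1 mg/mL solution) were mixed with 50 µM ThT in PBS for 15 min at RT, and fluorescence was read at λex 440/λem 488 nm against a PBS blank, as a triplicate mean ± SD. Zeta potential came from electrophoretic mobility (Smoluchowski) after 1 d aggregation at 1 mg/mL in PBS pH 7.4, diluted into 1 mM KCl.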

[4] = Fig. S7 panel A (plotted against β-sheet content)
[5] = Fig. S7 panel B (plotted against CR), rounded to two decimals
[6] = Log10 of infection rate relative to EF-C, Figure 3A source data
[7] = infection rate relative to EF-C, log10, data of Figure 2D
[8] = infection rate relative to EF-C, log10, source data of Figure 2C
[9] = second listing, peptides with TEM 2cat 0
[10] = ThT fluorescence category, 1 if Rel. ThT >2

Substance	Rel-EFC [1]	Log10 Infection Rel EFC [1]	Log Infectivity [1, 4]	Log Infectivity [1, 5]	Log10 Infection Rel EF-C [1, 6]	Log10 Infection Rel EF-C [1, 7]	Log10 Infection Rel EF-C [1, 8]	Abs. Inf. [1]	b -sheet / % [2] [%]	Tht category (> 2 to blank = +) ([3]; Fig S10 panel D)	ThT Cat. ([3]; Fig S10 panel E)	ThT Cat, ([3]; ThT category, 1 if Rel. ThT >2)	ThT Cat. ([3]; ThT category, 1 if Rel. ThT >2)	ThT Cat. / ThT-Fluorescence (categorical) [3]	Log10 of Rel to EFC (Feb2021) ([1]; all peptides of FigS16)	ThT Cat. [3, 10]	also measured
EIEIQINM	0,04	-1,44	-1.44	-1.44	-1.44	-1.44	-1.44	203.3	53.87	0 (ThT-inactive (N-Fold <2))	0 (ThT-inactive (N-Fold <2))	0 (ThT-inactive (N-Fold <2))	0 (ThT-inactive (N-Fold <2))	0 (ThT-inactive (N-Fold <2))	–	–	Abs. Infection at 0.26 µM ([1]; peptide 0.26 µM, mean of n = 3, Figure 4A): 203.3; Infect 1 0.26 µM ([1]; peptide 0.26 µM, replicate 1, absolute infection signal, Figure 4A): 203.33; Infect 2 0.26 µM ([1]; peptide 0.26 µM, replicate 2, absolute infection signal, Figure 4A): 123.33; Infect 3 0.26 µM ([1]; peptide 0.26 µM, replicate 3, absolute infection signal, Figure 4A): 283.33; Abs. Infection at 1.3 µM ([1]; peptide 1.3 µM, mean of n = 3, Figure 4A): 203.3; Infect 1 .3 µM ([1]; peptide 1.3 µM, replicate 1, absolute infection signal, Figure 4A): 253.33; Infect 2 1.3µM ([1]; peptide 1.3 µM, replicate 2, absolute infection signal, Figure 4A): 173.33; Infect 3 1.3 µM ([1]; peptide 1.3 µM, replicate 3, absolute infection signal, Figure 4A): 183.33; Tht category (> 2 to blank = +) ([3]; FigS12 panel A): 0 (ThT-inactive (N-Fold <2)); ThT Cat, ([3]; FigS12 panel B): 0 (ThT-inactive (N-Fold <2))
ILKNLSRSRKIKIQINMWQ	0,32	-0,49	-0.4939	–	-0.49	-0.4939	-0.4939	1797	39.13	1 (ThT. Cat is 1, if Rel. ThT >2)	–	1 (ThT. Cat is 1, if Rel. ThT >2)	1 (ThT. Cat is 1, if Rel. ThT >2)	1 (ThT. Cat is 1, if Rel. ThT >2)	-0.49	–	–
KIKIQINMWWQ	3,21	0,51	0.5063	–	0.51	0.5063	0.5063	17976.66667	50.48	0 (ThT-inactive (N-Fold <2))	–	0 (ThT-inactive (N-Fold <2))	0 (ThT-inactive (N-Fold <2))	0 (ThT-inactive (N-Fold <2))	0.51	–	Log10 of Rel to EFC (Feb2021) [1, 9]: 0.51; beta sheet [2]: 50
IKVAVKIKIQINM	0,5	-0,3	-0.3046	–	-0.3	-0.3046	-0.3046	17920	58.1	0 (ThT-inactive (N-Fold <2))	–	0 (ThT-inactive (N-Fold <2))	0 (ThT-inactive (N-Fold <2))	0 (ThT-inactive (N-Fold <2))	-0.3	–	–
MKIKIQINMWQ	0,42	-0,38	-0.378	–	-0.38	-0.378	-0.378	–	39.2	1 (ThT. Cat is 1, if Rel. ThT >2)	–	1 (ThT. Cat is 1, if Rel. ThT >2)	–	1 (ThT. Cat is 1, if Rel. ThT >2)	-0.38	1 (ThT. Cat is 1, if Rel. ThT >2)	–
KIKIQINMWWWQ	2,75	0,44	0.4391	–	0.44	0.4391	0.4391	15400	47.92	0 (ThT-inactive (N-Fold <2))	–	0 (ThT-inactive (N-Fold <2))	0 (ThT-inactive (N-Fold <2))	0 (ThT-inactive (N-Fold <2))	0.44	–	Log10 of Rel to EFC (Feb2021) [1, 9]: 0.44; beta sheet [2]: 48
KVKVQVVV	0,04	-1,46	-1.455	–	-1.46	-1.455	-1.455	–	45.8125	0 (ThT-inactive (N-Fold <2))	–	0 (ThT-inactive (N-Fold <2))	–	0 (ThT-inactive (N-Fold <2))	–	0 (ThT-inactive (N-Fold <2))	Tht category (> 2 to blank = +) ([3]; FigS12 panel A): 0 (ThT-inactive (N-Fold <2)); ThT Cat, ([3]; FigS12 panel B): 0 (ThT-inactive (N-Fold <2))
KIKIQIMQWN	0,72	-0,15	-0.1454	–	-0.15	-0.1454	-0.1454	11623.33333	40.38	0 (ThT-inactive (N-Fold <2))	–	0 (ThT-inactive (N-Fold <2))	0 (ThT-inactive (N-Fold <2))	0 (ThT-inactive (N-Fold <2))	-0.15	–	–
CKIKIQI	1,02	0,01	0.0081	0.01	0.01	0.0081	0.0081	–	53	1 (ThT. Cat is 1, if Rel. ThT >2)	1 (ThT. Cat is 1, if Rel. ThT >2)	1 (ThT. Cat is 1, if Rel. ThT >2)	–	1 (ThT. Cat is 1, if Rel. ThT >2)	0.01	1 (ThT. Cat is 1, if Rel. ThT >2)	Abs. Inf. / RLU s-1 ([1]; absolute infection rate, peptide 1.3 µM on cells, virus preincubated 10 min with fibrils, read 3 days post infection, mean of triplicate): 19406.66667 RLU s-1; Abs. Infection at 0.26 µM ([1]; peptide 0.26 µM, mean of triplicate): 4967; Infection RLU/s, 1.3 µm abs ([1]; peptide 1.3 µm (so in the source), mean of the 3 replicates): 19406.66667 RLU/s; FTIR ß-sheet content [2]: 53%
RGDCKFKFQF	0,15	-0,82	-0.8186	-0.82	-0.82	-0.8186	-0.8186	–	46.68	1 (ThT. Cat is 1, if Rel. ThT >2)	1 (ThT. Cat is 1, if Rel. ThT >2)	1 (ThT. Cat is 1, if Rel. ThT >2)	–	1 (ThT. Cat is 1, if Rel. ThT >2)	-0.82	1 (ThT. Cat is 1, if Rel. ThT >2)	–
MKIKIQINM	0,27	-0,56	-0.5635	–	-0.56	-0.5635	-0.5635	–	38.6306	0 (ThT-inactive (N-Fold <2))	–	0 (ThT-inactive (N-Fold <2))	–	0 (ThT-inactive (N-Fold <2))	-0.56	0 (ThT-inactive (N-Fold <2))	–
EIKIQINM	0,1	-1	-1.001	-1	-1	-1.001	-1.001	3607	48.03	1 (ThT. Cat is 1, if Rel. ThT >2)	1 (ThT. Cat is 1, if Rel. ThT >2)	1 (ThT. Cat is 1, if Rel. ThT >2)	1 (ThT. Cat is 1, if Rel. ThT >2)	1 (ThT. Cat is 1, if Rel. ThT >2)	–	–	Tht category (> 2 to blank = +) ([3]; FigS12 panel A): 1 (ThT. Cat is 1, if Rel. ThT >2); ThT Cat, ([3]; FigS12 panel B): 1 (ThT. Cat is 1, if Rel. ThT >2)

Reference: article PMC10447463, “Data-mining unveils structure–property–activity correlation of viral infectivity enhancing self-assembling peptides” (Nature Communications, 2023)
